Values after ≈ are worked out from the molar mass of the structure shown. “Also recorded” adds a separate entry of the source. Where two headings read alike, the source gives them in different places. Where a SMILES comes first, the peptide text is derived from it. Bridges are numbered along the chain shown (N, C = ends).
Assays:
[1] = test system: Bacteroides fragilis GC73; test: MIC, gut bacteria; type: cell-based; settings: column MHB; method: BHI + L-cysteine, hemin, vitamin K, anaerobic, 37 °C
Description: (§1) MICs were determined using broth microdilution method in cation-adjusted Mueller-Hinton Broth (MHBII, BD Difco) following standard procedures unless stated otherwise. Mycobacteria susceptibility was tested in Middlebrook 7H9 medium supplemented with 10% OADC Enrichment (oleic acid, bovine albumin, dextrose, and catalase) (BD Difco). The compounds (2 to 4 μl) were mixed with diluted cultures (5–7 × 10^5 cfu/mL) in MHB (196 to 198 μL) in 96-well round-bottom plates, and 2-fold serial dilutions were made. Plates were incubated at 37°C for 18–22 h, and OD600 readings were taken on Synergy Microplate Reader (Biotek). MIC was determined to be the lowest concentration of antibiotics with no visible growth. For Mycobacterial cultures, the plates were read after two to three days. Susceptibility was also assessed in MOPS minimal medium with 0.4% glucose (M2106 Teknova) and RPMI-1640 medium. Serum effects were tested in MHB with 10% or 50% fetal bovine serum (Invitrogen) or human serum (Heat Inactivated, from human male AB plasma; Sigma-Aldrich). For anaerobic conditions, E. coli was incubated in BD GasPak™ EZ pouch systems. To adjust the pH of the media, 1M NaOH or 1N HCl was used.
(§2) For MIC testing using human microbiota strains, the cultures were grown in BHI supplemented with L-cysteine (0.5g/L), Hemin (10mg/L), and Vitamin K (1mg/L) in anaerobic chambers (37 °C, 5% H2, 10% CO2, 85% N2). […]

[2] = test system: Lactobacillus plantarum GC4; test: MIC, gut bacteria; type: cell-based; settings: column MHB; method: BHI + L-cysteine, hemin, vitamin K, anaerobic, 37 °C
Description: as §1, §2

bacteria (Table 1) = test: MIC in nutrient-limited media; type: cell-based; settings: nutrient-limited media vs MHB
Description: as §1

E. coli ribosome = test: Translocation inhibition assay; type: biochemical, Escherichia coli; settings: 62.5 μM LAR or 250 μM negamycin, EF-G/GTP, primer extension
[3] = test system: ribosomes (E. coli PURExpress); test: Toeprinting assay; type: biochemical, Escherichia coli; settings: 1, 5 or 10 μM LAR, RST1 template
Description: Toe-printing analysis was carried out in the E. coli in vitro transcription-translation system assembled from the purified components (PURExpress, NEB) as described previously. Reactions either contained no antibiotic or were supplemented with 50 μM retapamulin or varying concentrations of LAR (1, 5, or 10 μM). The model RST1 template encoding a 21-aa long peptide containing all 20 proteinogenic amino acids[22] was generated by PCR using the primers RST1_F and FIRST1_R (Supplementary Table 1).

E. coli BW25113 [4] = test: Time-dependent killing; type: cell-based, Escherichia coli; settings: 10xMIC (40 μg/ml), MOPS minimal medium, 37°C
Description: (§3) E. coli BW25113 was grown overnight in 5 ml MOPS minimal medium and diluted 1:100 in 3 ml of fresh medium in 14 ml culture tubes. Cells were grown for three to four hours to reach mid-exponential phase (OD600 0.4–0.6) and treated with 10xMIC of LAR (40 μg/ml) or colistin (2.5 to 5 μg/ml) in 1 ml culture at 37°C with agitation at 250 rpm. Cultures were sampled at various times, centrifuged at 10,000 xg for 3 min, and plated on MHA plates. The number of colony forming units (cfu) was determined after incubating plates for 20–24 hr at 37°C. A time-kill assay against A. baumannii C0286 was performed in MHB. For cell lysis assay, cultures were prepared as described above. Initial OD600 was adjusted to 0.15–0.2, and 98 μl of culture was added to a 96-well plate containing 2 μl of compound. The plates were incubated with orbital shaking at maximum speed with a Synergy Microplate Reader (Biotek), and OD600 was measured over 6 h. Experiments were performed in two to three biological replicates. For colistin in cell lysis assay, clumping of cells was observed after ≈2h, leading to a false increase in OD; therefore, data for colistin was not plotted after this period. The plate was manually mixed on a vortex, and the turbidity of colistin-treated wells was confirmed.

E. coli BW25113 [5] = test: Cell lysis assay (optical density); type: cell-based, Escherichia coli; settings: exponential E. coli culture, OD600 over 6 h
Description: as §3

B. subtilis 168 = test: Selection of spontaneous resistant mutants; type: cell-based, Bacillus subtilis; settings: ~10^9 cfu on Mueller-Hinton agar, 37°C, 24–48 h
E. coli = test: MIC under anaerobic conditions; type: cell-based, Escherichia coli; settings: anaerobic vs aerobic
Description: as §1

[6] = test system: strains with odilorhabdin-resistance mutations; test: MIC in odilorhabdin-resistance mutants; type: cell-based; settings: three of 10 known odilorhabdin-resistance mutations
Description: as §1

[7] = test system: common anaerobe components of the human microbiome; test: Activity against human gut microbiome bacteria; type: cell-based; settings: BHI, anaerobic, 37 °C
Description: For MIC testing using human microbiota strains, the cultures were grown in BHI supplemented with L-cysteine (0.5g/L), Hemin (10mg/L), and Vitamin K (1mg/L) in anaerobic chambers (37 °C, 5% H2, 10% CO2, 85% N2). Candida albicans was cultivated in yeast nitrogen base (YNB) medium without amino acids (BD Difco).

[8] = test system: E coli BW25113 ΔbamBΔtolC; settings: 18–22 h
E coli BW25113 ΔbamB = settings: 18–22 h
[9] = test system: Pseudomonas aeruginosa PAO1
[10] = test system: Candida albicans ATCC 90028
human erythrocytes = test: Haemolysis
HEK293 cells = test: Cytotoxicity against human cells
A. baumannii C0286 = test: Neutropenic mouse thigh-infection model
[11] = test system: E. coli BW25113 ΔtolCΔbamB expressing various resistance genes; test: Cross-resistance with resistance mechanisms; settings: mutations or enzymatic resistance mechanisms; Extended Data Fig. 10

CC(C)[C@H](NC(=O)CNC(=O)[C@H](CCCNC(=N)N)NC(=O)CNC(=O)[C@H](Cc1ccccc1)NC(=O)[C@H](CCCCN)NC(=O)CNC(=O)[C@@H]1CC(=O)N[C@@H](CO)C(=O)N[C@@H](CCCCN)C(=O)N[C@@H](CCCCN)C(=O)N[C@@H](CO)C(=O)N[C@@H](CCCCN)C(=O)N2CCC[C@H]2C(=O)NCC(=O)N1)C(=O)N[C@@H](CCCCN)C(=O)N[C@@H](CCCNC(=N)N)C(=O)NCC(=O)O [LAR, lariocidin] (SKKSKPGDGKFGRGVKRG-OH; lactam N-8)
MIC [1]: >256 µg/mL | MIC [2]: >256 µg/mL | MIC reduction in nutrient-limited media (bacteria (Table 1)): ≤ 128 fold | Inhibition of ribosome translocation (E. coli ribosome): inhibits ribosome translocation; also recorded: this reaction was inhibited when LAR was present | Ribosome stalling (toeprint) [3]: predominantly arrested at the start codon of a model mRNA but also stalled at internal codons of the ORF | Viable cell count / bactericidal activity (E. coli BW25113 [4]): dramatically reduced the viable cell count; also recorded: exhibits bactericidal activity | Effect on culture optical density (lysis) (E. coli BW25113 [5]): did not cause a decrease in the optical density of the culture below the initial point | Frequency of resistant mutants (B. subtilis 168): ~ 10^−8 | Increase in MIC under anaerobic conditions (E. coli): 4-to-8 fold | Increase in LAR MIC by odilorhabdin-resistance mutations [6]: 2–4 x | Activity vs gut microbiome anaerobes [7]: no activity | MIC ([8]; MHB, 37°C): 2 to 4 µg/mL | MIC ([8]; RPMI-1640, 37°C): ≤0.25 µg/mL | MIC (E coli BW25113 ΔbamB; MHB, 37°C): 32 µg/mL (≈ 17.1 µM) | MIC (E coli BW25113 ΔbamB; RPMI-1640, 37°C): 1 µg/mL (≈ 0.534 µM) | MIC [9]: 64 to 128 µg/mL | MIC (M. smegmatis MC^2 155): 1 to 2 µg/mL | MIC (text) (M. smegmatis MC^2 155): 1 to 2 µg/mL | Antifungal action [10]: no antifungal action | MIC ([10]; column MHB, method: yeast nitrogen base (YNB) without amino acids): >256 µg/mL | Hemolytic activity (human erythrocytes): did not display hemolytic activity | Haemolysis (human erythrocytes; 500 μg/ml, human erythrocytes in PBS pH 7.4, 1 h, 37°C, 540 nm, Triton X-100 = 100%): <1% | Cytotoxicity against human cells (HEK293 cells): no human cell toxicity; also recorded: did not display hemolytic activity or cytotoxicity against human cells | Reduction in bacterial burden, blood (A. baumannii C0286; 50 mg kg^−1 i.p. at 1, 4, 8 and 20 h post-infection, 24 h, vs vehicle, n = 8 treated): 2 orders of magnitude | Reduction in bacterial burden, spleen (A. baumannii C0286; 50 mg kg^−1 i.p. at 1, 4, 8 and 20 h post-infection, 24 h, vs vehicle, n = 15 treated): 2 orders of magnitude | Reduction in bacterial burden, thigh (A. baumannii C0286; 50 mg kg^−1 i.p. at 1, 4, 8 and 20 h post-infection, 24 h, vs vehicle, n = 30 treated): 2 orders of magnitude | In vivo activity (A. baumannii C0286; mouse model of A. baumannii infection): potent in vivo activity | Survival (A. baumannii C0286; over 48 h post-infection, 50 mg kg^−1 i.p. x4): 100% | Appearance of treated mice (A. baumannii C0286; vs control mice): appeared much healthier than control mice | Sensitivity to resistance mechanisms [11]: unaffected by common resistance mechanisms; also recorded: mostly insensitive to mutations or enzymatic resistance mechanisms

— PMC11451635, “A Broad Spectrum Lasso Peptide Antibiotic Targeting the Bacterial Ribosome” (Research Square, 2024)
